Experimental data taken from US8609715B2, “Heteroarylcarboxylic acid ester derivative” (Ajinomoto Co., Inc., priority 2009, dated 2013).
Where a name gives a salt, the structure may show the parent alone.

biological target: recombinant human enteropeptidase (Homo sapiens (Human), UniProt P98073); assay: Measurement of enteropeptidase inhibitory activity; type: biochemical; settings: Dixon plot
Protocol: Measurement of Enteropeptidase Inhibitory Activity
Using a 96 well plate (#3915, Costar), a test compound (25 μL), 400 mM Tris-HCl buffer (pH 8.0, 25 μL) and 0.5 mg/mL fluorescence enzyme substrate (Gly-Asp-Asp-Asp-Asp-Lys-β-Naphtylamide, 25 μL) were mixed, and recombinant human enteropeptidase (R&D Systems, Inc., 25 μL) was added. Using a fluorescence plate reader fmax (Molecular Devices, Inc.), the reaction rate was measured from the time-course changes at excitation wavelength 320 nm and fluorescence wavelength 405 nm. The Ki value was calculated from the concentration of the test compound, reciprocal of reaction rate, and Km value of the enzyme substrate, and by using Dixon plot.

Sequence of recombinant human enteropeptidase (P98073 whole entry): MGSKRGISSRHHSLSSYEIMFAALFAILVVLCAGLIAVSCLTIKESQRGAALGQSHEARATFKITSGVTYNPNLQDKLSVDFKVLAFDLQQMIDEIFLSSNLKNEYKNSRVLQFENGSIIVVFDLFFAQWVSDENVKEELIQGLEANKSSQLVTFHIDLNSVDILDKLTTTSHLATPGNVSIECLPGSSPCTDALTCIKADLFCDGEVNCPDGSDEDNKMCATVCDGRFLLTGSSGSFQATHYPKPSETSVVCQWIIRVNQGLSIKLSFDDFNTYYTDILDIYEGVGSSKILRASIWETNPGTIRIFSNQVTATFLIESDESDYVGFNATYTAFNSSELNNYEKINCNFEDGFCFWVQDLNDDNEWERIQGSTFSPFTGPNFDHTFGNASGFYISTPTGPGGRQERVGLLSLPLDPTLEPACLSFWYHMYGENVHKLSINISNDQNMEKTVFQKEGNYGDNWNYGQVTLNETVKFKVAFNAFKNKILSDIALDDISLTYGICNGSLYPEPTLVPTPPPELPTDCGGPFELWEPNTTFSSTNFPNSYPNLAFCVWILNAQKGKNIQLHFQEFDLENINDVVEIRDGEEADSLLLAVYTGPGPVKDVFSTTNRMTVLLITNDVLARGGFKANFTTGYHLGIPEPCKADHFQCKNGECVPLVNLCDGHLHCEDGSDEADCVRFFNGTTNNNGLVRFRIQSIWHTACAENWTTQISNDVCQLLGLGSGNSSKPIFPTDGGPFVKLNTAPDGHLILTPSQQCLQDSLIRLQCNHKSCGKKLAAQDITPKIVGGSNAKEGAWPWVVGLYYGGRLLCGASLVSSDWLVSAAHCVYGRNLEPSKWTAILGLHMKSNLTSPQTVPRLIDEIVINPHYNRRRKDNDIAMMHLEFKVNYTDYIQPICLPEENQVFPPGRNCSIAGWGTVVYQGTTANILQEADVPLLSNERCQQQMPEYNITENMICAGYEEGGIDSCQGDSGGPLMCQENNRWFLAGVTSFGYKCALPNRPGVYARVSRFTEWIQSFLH

Row | Ki | Compound
1 | 890 pM | CC(CCC(=O)N[C@@H](CC(=O)O)C(=O)O)Cc1ccc(C(=O)Oc2ccc(C(=N)N)cc2)s1 (stereo partly drawn) [Compound B-50]
2 | 720 pM | CC(Cc1cc(C(=O)Oc2ccc(C(=N)N)cc2F)cs1)C(=O)O (stereo not drawn) [Compound B-51, 3-[4-(4-amidino-2-fluorophenoxycarbonyl)thiophen-2-yl]-2-methylpropanoic acid trifluoroacetic acid salt]
3 | 390 pM | CC(Cc1cc(C(=O)Oc2ccc(C(=N)N)cc2F)cs1)C(=O)N[C@@H](CC(=O)O)C(=O)O (stereo partly drawn) [Compound B-52]
4 | 4800 pM | CC(Cc1cc(C(=O)Oc2ccc(C(=N)N)cc2)cs1)C(=O)N[C@@H](CC(=O)O)C(=O)O (stereo partly drawn) [Compound B-53]
5 | 580 pM | N=C(N)c1ccc(OC(=O)c2csc(CCC(=O)N[C@@H](CC(=O)O)C(=O)O)c2)c(F)c1 [Compound B-54, N-{3-[4-(4-amidino-2-fluorophenoxycarbonyl)thiophen-2-yl]propanoyl}-L-aspartic acid trifluoroacetic acid salt]
6 | 980 pM | CC(Cc1csc(C(=O)Oc2ccc(C(=N)N)cc2)c1)C(=O)N[C@@H](CC(=O)O)C(=O)O (stereo partly drawn) [Compound B-55]
7 | 9500 pM | N=C(N)c1ccc(OC(=O)c2ccc(-c3ccc(C(=O)N[C@@H](CC(=O)O)C(=O)O)cc3)s2)cc1 [Compound B-56]
8 | 3000 pM | N=C(N)c1ccc(OC(=O)c2ccc(-c3ccc(C(=O)N[C@@H](CC(=O)O)C(=O)O)cc3)s2)c(F)c1 [Compound B-57]
9 | 9800 pM | N=C(N)c1ccc(OC(=O)c2ccc(-c3cccc(C(=O)N[C@@H](CC(=O)O)C(=O)O)c3)s2)cc1 [Compound B-58]
10 | 8200 pM | N=C(N)c1ccc(OC(=O)c2ccc(-c3ccc(C(=O)N[C@@H](CC(=O)O)C(=O)O)s3)s2)cc1 [Compound B-59, N-{5-[5-(4-amidinophenoxycarbonyl)-thiophen-2-yl]thiophen-2-ylcarbonyl}-L-aspartic acid trifluoroacetic acid salt]
11 | 640 pM | N=C(N)c1ccc(OC(=O)c2ccc(CC(=O)N[C@@H](CC(=O)O)C(=O)O)s2)c(F)c1 [Compound B-60, N-[5-(4-amidino-2-fluorophenoxycarbonyl)thiophen-2-ylacetyl]-L-aspartic acid trifluoroacetic acid salt]
12 | 130 pM | Cc1cc(C(=O)Oc2ccc(C(=N)N)cc2F)sc1CCC(=O)N[C@@H](CC(=O)O)C(=O)O [Compound B-61, N-{3-[5-(4-amidino-2-fluorophenoxycarbonyl)-3-methylthiophen-2-yl]propanoyl}-L-aspartic acid trifluoroacetic acid salt]
13 | 570 pM | N=C(N)c1ccc(OC(=O)c2ccc(CCC(=O)N[C@@H](CCC(=O)O)C(=O)O)s2)c(F)c1 [Compound B-62]
14 | 550 pM | C=CCN(C(=O)CCc1ccc(C(=O)Oc2ccc(C(=N)N)cc2F)s1)[C@@H](CC(=O)O)C(=O)O [Compound B-63, N-{3-[5-(4-amidino-2-fluorophenoxycarbonyl)thiophen-2-yl]propanoyl}-N-allyl-L-aspartic acid trifluoroacetic acid salt]
15 | 140 pM | CC(C)(Cc1ccc(C(=O)Oc2ccc(C(=N)N)cc2F)s1)C(=O)N[C@@H](CC(=O)O)C(=O)O [Compound B-64, N-{3-[5-(4-amidino-2-fluorophenoxycarbonyl)thiophen-2-yl]-2,2-dimethylpropanoyl}-L-aspartic acid trifluoroacetic acid salt]
16 | 3200 pM | N=C(N)c1ccc(OC(=O)c2ccc(CCC(=O)N[C@@H](Cc3ccc(O)cc3)C(=O)O)s2)c(F)c1 [Compound B-65]
17 | 730 pM | N=C(N)c1ccc(OC(=O)c2ccc(CCC(=O)N[C@@H](CO)C(=O)O)s2)c(F)c1 [Compound B-66]
18 | 5670 pM | C/C(=C\c1nc(C(=O)Oc2ccc(C(=N)N)cc2)cs1)C(=O)N(CCCO)CC(=O)O [Compound C-2]

test system: KK-A^y/JCL mice; assay: Evaluation of antidiabetic action (blood glucose level); type: in vivo; settings: dose 5.6 mg/100 g mixed in feed CRF-1, after one week of dosing
Excerpt: Evaluation of Antidiabetic Action KK-A^y/JCL mice (male, 5- to 7-week-old, CLEA Japan, Inc.) known to spontaneously develop obese type 2 diabetes were purchased and, after one week of preliminary rearing period, grouped (6 per group) with the body weight and non-fasting blood glucose levels as indices. The animals were individually housed in a polycarbonate cage and allowed to drink water freely from a watering bottle. […] CRF-1 alone was given to the control group. After one week of dosing period, the blood (6 μL) was drawn from the tail vein of the animals, and the blood glucose level was measured by ACCU-CHEK Aviva (Roche Diagnostics K.K.). A significant difference from the control group was detected by Dunnett's multiple comparison test or Student's t-test (significance level less than 5%).

Row | Compound | Mean blood glucose level
19 | CC(Cc1ccc(C(=O)Oc2ccc(C(=N)N)cc2)o1)C(=O)N[C@H](CC(=O)O)C(=O)O.O=C(O)C(F)(F)F (stereo partly drawn) [A-28 hydrochloride] | 219 mg/dL
20 | CC(Cc1ccc(C(=O)Oc2ccc(C(=N)N)cc2)s1)C(=O)N[C@@H](CC(=O)O)C(=O)O.O=C(O)C(F)(F)F (stereo partly drawn) [B-18 hydrochloride] | 217 mg/dL
21 | CC(Cc1ccc(C(=O)Oc2ccc(C(=N)N)cc2F)s1)C(=O)N[C@@H](CC(=O)O)C(=O)O.O=C(O)C(F)(F)F (stereo partly drawn) [B-20 hydrochloride] | 197 mg/dL
22 | CC(Cc1ccc(C(=O)Oc2ccc(C(=N)N)cc2)s1)C(=O)N[C@H](CC(=O)O)C(=O)O.Cl (stereo partly drawn) [B-23 hydrochloride] | 198 mg/dL
23 | N=C(N)c1ccc(OC(=O)c2ccc(CCC(=O)N[C@@H](CC(=O)O)C(=O)O)s2)c(F)c1.O=C(O)C(F)(F)F [B-32 hydrochloride] | 249 mg/dL

same assay, conditions: dose 16.8 mg/100 g mixed in feed CRF-1, after one week of dosing

Row | Compound | Mean blood glucose level
24 | CC(Cc1ccc(C(=O)Oc2ccc(C(=N)N)cc2)s1)C(=O)N[C@@H](CC(=O)O)C(=O)O.O=C(O)C(F)(F)F (stereo partly drawn) [B-18 hydrochloride] | 138 mg/dL
